# Test results reported in patent US4130709A, “Pleuromutilin glycoside derivatives” (Eli Lilly and Company, priority 1977, dated 1978).
# Where two headings read alike, the source gives them in different places.
# Experiments:
# [1] = tested on: Fusobacterium necrophorum; experiment: standard agar-dilution test, anaerobic bacteria; format: cell-based; details: 24-hour incubation, read-out: MIC
# [2] = tested on: Staphylococcus aureus 3055; experiment: in vivo antimicrobial activity, experimental infection in mice, Staphylococcus aureus 3055; details: two doses, read-out: ED50 × 2
# Method: (§1) Typical compounds of the present invention have shown in vivo antimicrobial activity against experimental bacterial infections. When two doses of these compounds were administered to mice in illustrative infections, the activity observed was measured as an ED50 value [effective dose in mg/kg to protect 50% of the test animals; see Warren Wick, et al., J. Bacteriol. 81, 233-235 (1961)].
# [3] = tested on: Bacteroides vulgatis; experiment: standard agar-dilution test, anaerobic bacteria; format: cell-based; details: Bacteroides vulgatis; 24-hour incubation; read-out: MIC
# [4] = tested on: Pasteurella hemolytica; experiment: in vitro tests against Pasteurella hemolytica; format: cell-based
# [5] = tested on: Peptostreptococcus anaerobius; experiment: standard agar-dilution test, anaerobic bacteria; format: cell-based; details: 24-hour incubation
# [6] = tested on: Spiroplasma citri; experiment: in vitro inhibition of Spiroplasma citri measured by a color reaction; format: cell-based; set-up: key to Activity (color reaction): Red (R) includes complete inhibition; red-orange (RO) indicates partial inhibition; yellow (Y) indicates no inhibition
# Method: In another important aspect, the compounds of this invention are active against Spiroplasmas. Spiroplasma citri is the causative agent of citrus-stubborn disease; another Spiroplasma, corn-stunt Spiroplasma, affects the growth of corn. Table VII summarizes the in vitro activity of representative compounds of the present invention (R^2 =H in this group) against Spiroplasma citri. In this test, inhibition of S. citri is measured by a color reaction. Red (R) includes complete inhibition; red-orange (RO) indicates partial inhibition; and yellow (Y) indicates no inhibition.
# [7] = tested on: Fusobacterium symbiosum; experiment: standard agar-dilution test, anaerobic bacteria; format: cell-based; details: Fusobacterium symbiosum; 24-hour incubation; read-out: MIC
# [8] = tested on: Peptococcus asaccharolyticus; experiment: standard agar-dilution test, anaerobic bacteria; format: cell-based; details: Peptoniphilus asaccharolyticus, 24-hour incubation
# [9] = tested on: Pseudomonas sp. (fish); experiment: in vitro activity against Pseudomonas sp. (fish); format: cell-based
# Excerpt: P. multocida, for example, is a causative agent of respiratory infection in cattle, poultry and swine. P. hemolytica is a major cause of respiratory disease in cattle. The activity of representative compounds of this invention (R^2 =H in group tested) against P. multocida and the Pseudomonas sp. is summarized in Table VI.
# [10] = tested on: Bacteroides melaninogenicus 2736; experiment: standard agar-dilution test, anaerobic bacteria; format: cell-based; details: Bacteroides melaninogenicus 2736; 24-hour incubation; read-out: MIC
# [11] = tested on: Peptostreptococcus intermedius; experiment: standard agar-dilution test, anaerobic bacteria; format: cell-based; details: Peptostreptococcus intermedius; 24-hour incubation; read-out: MIC
# [12] = tested on: Bacteroides fragilis 1936B; experiment: standard agar-dilution test, anaerobic bacteria; format: cell-based; details: Bacteroides fragilis 1936B; 24-hour incubation; read-out: MIC
# [13] = tested on: Streptococcus pneumoniae Park I; experiment: in vivo antimicrobial activity, experimental infection in mice, Streptococcus pneumoniae Park I; details: sc, read-out: ED50 × 2
# Method: as §1
# [14] = tested on: Clostridium perfringens; experiment: microbe, parasite or virus in culture; format: cell-based; details: 24 h
# [15] = tested on: Pasteurella multocida (bovine); experiment: in vitro activity against Pasteurella multocida (bovine); format: cell-based
# Excerpt: (§2) The activity of representative compounds of this invention (R^2 =H in group tested) against P. multocida and the Pseudomonas sp. is summarized in Table VI.
# [16] = tested on: Treponema hyodysenteriae; experiment: in vitro agar plate test against Treponema hyodysenteriae; details: four days anaerobic
# [17] = tested on: Actinomyces israelii; experiment: standard agar-dilution test, anaerobic bacteria; format: cell-based; details: 24-hour incubation
# [18] = tested on: Bacteroides fragilis 111; experiment: standard agar-dilution test, anaerobic bacteria; format: cell-based; details: Bacteroides fragilis 111; 24-hour incubation; read-out: MIC
# [19] = tested on: Streptococcus pneumoniae B1492; experiment: in vivo antimicrobial activity, experimental infection in mice, Streptococcus pneumoniae B1492; details: sc, two doses, infecting challenge 340 × LD50 (ip), read-out: ED50 × 2
# Method: as §1
# [20] = tested on: Streptococcus pyrogenes C203; experiment: in vivo antimicrobial activity, experimental infection in mice, Streptococcus pyrogenes C203; details: sc, two doses, read-out: ED50 × 2
# Method: as §1
# [21] = tested on: Clostridium septicum; experiment: standard agar-dilution test, anaerobic bacteria; format: cell-based; details: 24-hour incubation
# Method: (§3) Table IV summarizes the activity of typical compounds of this invention, as determined by the standard agar-dilution test.
# (§4) *Endpoint read after 24-hour incubation
# [22] = tested on: Bacteroides thetaiotaomicron; experiment: standard agar-dilution test, anaerobic bacteria; format: cell-based; details: 24-hour incubation
# Method: as §3, §4
# [23] = tested on: Staphylococcus aureus (H-Heatley) NRRL B-314; experiment: in vitro turbidometric assay (Autoturb Microbiological Assay System) against Staphylococcus aureus; format: cell-based; details: nutrient broth pH 7, approximately 4 hours at 37° C., A-40104 factor A as standard
# Summary of the method: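 S. aureus H-Heatley NRRL B-314 grown in nutrient broth (pH 7), about 4 h at 37° C, with turbidity read on the Autoturb system. Compounds were dissolved in water and diluted to roughly 2.5–5.0 mcg activity/ml. Activity units were set against an A-40104 factor A standard curve (1.25–6.25 mcg/ml).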
# [24] = toxicity (LD50) on intraperitoneal injection in mice; details: mouse, in vivo, ip
# [25] = tested on: Bacteroides fragilis 1877; experiment: standard agar-dilution test, anaerobic bacteria; format: cell-based; details: Bacteroides fragilis 1877; 24-hour incubation; read-out: MIC
# [26] = tested on: Bacteroides corrodens; experiment: standard agar-dilution test, anaerobic bacteria; format: cell-based; details: Eikenella corrodens; Bacteroides corrodens; 24-hour incubation; read-out: MIC
# [27] = tested on: Eubacterium aerofaciens; experiment: standard agar-dilution test, anaerobic bacteria; format: cell-based; details: Collinsella aerofaciens; Eubacterium aerofaciens; 24-hour incubation; read-out: MIC
# [28] = tested on: Bacteroides melaninogenicus 1856/28; experiment: standard agar-dilution test, anaerobic bacteria; format: cell-based; details: Prevotella intermedia; Bacteroides melaninogenicus 1856/28; 24-hour incubation; read-out: MIC
# [29] = tested on: Mycoplasma hyorhinis; experiment: in vitro broth-dilution studies, mycoplasma; format: cell-based
# Excerpt: (§5) The minimal inhibitory concentrations (MIC's) of a number of typical compounds of the present invention (R^2 =H in group tested) against various mycoplasma species, as determined by in vitro broth-dilution studies, are summarized in Table V.
# [30] = tested on: Mycoplasma hyopneumoniae; experiment: in vitro broth-dilution studies, mycoplasma; format: cell-based; details: Mesomycoplasma hyopneumoniae
# Excerpt: as §5
# [31] = tested on: Mycoplasma synoviae; experiment: in vitro broth-dilution studies, mycoplasma; format: cell-based; details: Mycoplasmopsis synoviae
# Excerpt: as §5
# [32] = tested on: Mycoplasma gallisepticum; experiment: in vitro broth-dilution studies, mycoplasma; format: cell-based; details: Mycoplasmoides gallisepticum
# Excerpt: as §5
# [33] = tested on: Peptococcus prevoti; experiment: standard agar-dilution test, anaerobic bacteria; format: cell-based; details: Peptococcus prevoti; 24-hour incubation; read-out: MIC
# [34] = tested on: Pasteurella multocida (turkey); experiment: in vitro activity against Pasteurella multocida (turkey); format: cell-based
# Excerpt: as §2
# [35] = tested on: Streptococcus pneumoniae B1343; experiment: in vivo antimicrobial activity, experimental infection in mice, Streptococcus pneumoniae B1343; details: sc, two doses, infecting challenge 30 × LD50 (ip), read-out: ED50 × 2
# Method: as §1
# [36] = tested on: swine dysentery; details: cited from earlier work
# [37] = Staphylococcus aureus, 3055, po, oral, infecting challenge 500 × LD50 (ip)
# [38] = Staphylococcus aureus, 3055, po, oral, infecting challenge 3400 × LD50 (ip)
structure (smiles),measurement,setting,value
C=C[C@]1(C)C[C@@H](OC(=O)CS[C@@H]2OC[C@@H](O)[C@H](O)[C@H]2O)[C@]2(C)[C@H](C)CC[C@]3(CCC(=O)[C@H]32)[C@@H](C)[C@@H]1O [Compound 2],MIC,[1],≤ 0.5 µg/mL
same,ED50,[2]; [37],32.4 mg/kg
same,ED50,[2]; [38],44 mg/kg
same,ED50,"[2]; Staphylococcus aureus, 3055, sc, sc, infecting challenge 82 × LD50 (ip)",1.85 mg/kg
same,MIC,[3],1 µg/mL
same,MIC,[4],12.5 µg/mL
same,MIC,[5],≤ 0.5 µg/mL
same,Activity (color reaction),[6]; 0.01 ppm,"RO,RO"
same,Activity (color reaction),[6]; 0.05 ppm,"--,R"
same,Activity (color reaction),[6]; 0.1 ppm,"R,R"
same,Activity (color reaction),[6]; 1.0 ppm,"R,R"
same,MIC,[7],2 µg/mL
same,MIC,[8],≤ 0.5 µg/mL
same,MIC,[9],6.25 µg/mL
same,MIC,[10],1 µg/mL
same,MIC,[11],≤ 0.5 µg/mL
same,MIC,[12],1 µg/mL
same,ED50,[13],65 mg/kg
same,MIC,[14],2 µg/mL
same,MIC,[15],3.12 µg/mL
same,inhibition of growth,[16]; 0.5 mcg/ml agar concentration,inhibited growth
same,inhibition of growth,[16]; 5.0 mcg/ml agar concentration,inhibited growth
same,inhibition of growth,[16]; 50 mcg/ml agar concentration,inhibited growth
same,MIC,[17],≤ 0.5 µg/mL
same,MIC,[18],1 µg/mL
same,ED50,[19],15.3 mg/kg
same,ED50,[20]; infecting challenge 370 × LD50 (ip),11.4 mg/kg
same,MIC,[21],2 µg/mL
same,MIC,[22],1 µg/mL
same,Units of Activity,[23],995 to 1003 µg/mg
same,LD50,[24],> 1500 mg/kg
same,MIC,[25],1 µg/mL
same,MIC,[26],1 µg/mL
same,MIC,[27],1 µg/mL
same,MIC,[28],> 128 µg/mL
same,MIC,[29],0.39 µg/mL
same,MIC,[30],≤ 0.15 µg/mL
same,MIC,[31],0.78 µg/mL
same,MIC,[32],0.78 µg/mL
same,MIC,[33],≤ 0.5 µg/mL
same,MIC,[34],6.25 µg/mL
CC[C@]1(C)C[C@@H](OC(=O)CS[C@@H]2OC[C@@H](O)[C@H](O)[C@H]2O)[C@]2(C)[C@H](C)CC[C@]3(CCC(=O)[C@H]32)[C@@H](C)[C@@H]1O [Compound 3],MIC,[1],1 µg/mL
same,ED50,[2]; [37],21 mg/kg
same,ED50,[2]; [38],29 mg/kg
same,ED50,"[2]; Staphylococcus aureus, 3055, sc, sc, infecting challenge 400 × LD50 (ip)",1.6 mg/kg
same,MIC,[3],1 µg/mL
same,MIC,[5],≤ 0.125 µg/mL
same,Activity (color reaction),[6]; 0.01 ppm,R
same,Activity (color reaction),[6]; 0.05 ppm,R
same,Activity (color reaction),[6]; 0.1 ppm,R
same,Activity (color reaction),[6]; 1.0 ppm,R
same,MIC,[7],1 µg/mL
same,MIC,[8],0.5 µg/mL
same,MIC,[9],12.5 µg/mL
same,MIC,[10],0.5 µg/mL
same,MIC,[11],0.5 µg/mL
same,MIC,[12],1 µg/mL
same,ED50,[13],58.5 mg/kg
same,MIC,[14],2 µg/mL
same,MIC,[15],6.25 µg/mL
same,MIC,[17],0.5 µg/mL
same,MIC,[18],2 µg/mL
same,ED50,[19],13.2 mg/kg
same,ED50,[20]; infecting challenge 500 × LD50 (ip),7 mg/kg
same,ED50,[35],16.3 mg/kg
same,MIC,[21],1 µg/mL
same,MIC,[22],0.5 µg/mL
same,Units of Activity,[23],1150 to 1243 µg/mg
same,MIC,[25],1 µg/mL
same,MIC,[26],1 µg/mL
same,MIC,[27],0.5 µg/mL
same,MIC,[28],0.25 µg/mL
same,MIC,[29],0.39 µg/mL
same,MIC,[30],≤ 0.15 µg/mL
same,MIC,[31],0.39 µg/mL
same,MIC,[32],0.39 µg/mL
same,MIC,[33],≤ 0.125 µg/mL
same,MIC,[34],6.25 µg/mL
C=C[C@]1(C)C[C@@H](OC(=O)CO)[C@]2(C)[C@H](C)CC[C@]3(CCC(=O)[C@H]32)[C@@H](C)[C@@H]1O [pleuromutilin],effectiveness in the treatment of swine dysentery (in words),[36],effective in the treatment of swine dysentery
